Patent publication US20220016196A1, “Aloe Based Compositions Comprising Polysaccharides and Polyphenols for Regulation of Homeostasis of Immunity” (Unigen, Inc., priority 2020, published 2022)

System: LPS-induced septic mice
Assay: LPS induced sepsis model, survival/mortality rate
Assay type: in vivo, mouse
Conditions: for # of Death after LPS: cumulative; for Number of deceased animals post LPS: per interval
Method: CD-1 mice were purchased from a USDA approved vendor. Male CD-1 mice at 8 weeks old were purchased form Charles River Laboratories, Inc. (Wilmington, Mass.). Animals were acclimated upon arrival and used for the study at the age of 11 weeks. At the time of the study animals average weigh 33.6±2.4 grams. They were housed in a temperature-controlled room (71-72° F.) on a 12-hour light-dark cycle and provided with feed and water ad libitum.
This model used a survival/mortality rate of animals as the end point measurement (Wang et al., 1999). LPS, an exogenous assault trigger, is an integral component of the outer membrane of gram-negative bacteria and a major contributing factor in the initiation of a generalized inflammatory process that could lead to endotoxic shock. It is a state mediated principally by macrophages/monocytes attributed to excessive production of several early phase cytokines such as TNF, IL-1, IL-6 and gamma interferon as well as a late stage mediator HMGB1. Following median lethal dose of LPS (25 mg/kg) administration dissolved in Phosphate buffered saline (PBS; Lifeline, Lot #07641), animals develop endotoxemia and HMGB1 would be detected in the serum at 8 hours and reach to a peak and plateau levels from 16 to 32 hours after LPS. If untreated, mice would start to die within 24 hours. In the current study, we monitored the mice for 4 days after LPS injection. The survival/mortality rate compared LPS +Sodium butyrate (SB; Aldrich, St. Louis, Mo.; lot #MKCG7272), LPS+Vehicle (0.5% CMC; Spectrum, New Brunswick, N.J.; lot #1IJ0127) and LPS+UP360 (Aloe based composition comprising polysaccharides and polyphenols made in Example 9). The following groups were included in the study:
In this model, mice were pretreated with UP360 illustrated in the Example 9 for a week (7 days) before lethal dose intraperitoneal injection of LPS (E. coli, 055:B5; Sigma, St. Louis, Mo.; Lot #081275) at 25 mg/kg with a 10 mL/kg PBS volume. Animals were observed hourly. Given the fact that Sodium butyrate improved LPS-induced injury in mice through suppression of HMGB1 release, we chose this compound as a positive control for our study (Li et al., 2018).
Male CD-1 mice (n=13) were treated with Aloe, Poria, and Rosmarinic acid (RA) utilized for making UP360 in Example 9 at 150 mg/kg, 300 mg/kg and 50 mg/kg, respectively, for 7 days before LPS injection. On the 8th day, mice were injected with 25 mg/kg LPS dissolved in PBS at 10 mL/kg intraperitoneally. Mice in the UP360-treated group received a daily dose of UP360 at 500 mg/kg. All mice continued to receive the respective treatment daily for the duration of the study. Following median lethal dose of LPS (25 mg/kg) i.p. administration, animals are expected to develop sepsis within a few hours. If untreated, mice would start to die within 24 hours. Animals were observed hourly. In the current study, we monitored the mice for 6 days after LPS injection. The survival rate compared LPS+Sodium butyrate (SB), LPS+Vehicle (0.5% CMC), LPS+UP360, LPS+Aloe, LPS+Poria and LPS+Rosmarinic acid. Normal control animals received only PBS intraperitoneally and gavaged only with the carrier vehicle 0.5% CMC. Given the fact that Sodium butyrate (SB) improved LPS-induced injury in mice through suppression of HMGB1 release, we chose this compound as a positive control for our study (Li et al., 2018).
The survival rate and mortality rate of the contemplated Aloe-based compositions, including UP360, comprising and, in some embodiments, consisting of polysaccharides and polyphenols was compared with those dosages of individual extracts as they appear in the formulation to find out potential additive, antagonist or synergistic effects in combination using Colby's equation (Colby, 1967). For the blending of these plant extracts to have unexpected synergy, the observed inhibition needs to be greater than the calculated value.

[1] = n=13 study, doses as E61, 24 hr
[2] = n=13 study, doses as E61, 36 hr
[3] = n=13 study, doses as E61, 48 hr
[4] = n=13 study, doses as E61, 60 hr
[5] = n=13 study, doses as E61, 72 hr
[6] = n=13 study, doses as E61, 96 hr
[7] = n=13 study, doses as E61, 120 hr
[8] = n=13 study, doses as E61, 144 hr

CCCC(=O)[O-].[Na+] [Sodium Butyrate]
# of Death after LPS (CD-1 mice n=8, LPS 25 mg/kg i.p., 500 mg/kg oral from 7 days before, 24 hr): 2
Number of deceased animals post LPS (CD-1 mice n=13, LPS 25 mg/kg i.p., oral UP360/SB 500, Aloe 150, Poria 300, RA 50 mg/kg, 24 hpi): 2
MR (%) (mortality rate, n=13 study, doses as E49, end of study): 69.2%
# of Death after LPS, Total (n=8, LPS 25 mg/kg i.p., 500 mg/kg oral): 4
survival rate (n=8, LPS 25 mg/kg i.p., 500 mg/kg oral, 24 hours after LPS): 75%
survival rate (n=8, LPS 25 mg/kg i.p., 500 mg/kg oral, 34 hours after LPS): 62.5%
survival rate (n=8, LPS 25 mg/kg i.p., 500 mg/kg oral, 48 hours after LPS): half of the animals were deceased
survival rate (n=8, LPS 25 mg/kg i.p., 500 mg/kg oral, 72 hours after LPS): 50%
# of Death after LPS (n=8, LPS 25 mg/kg i.p., 500 mg/kg oral, 32 hr): 3
# of Death after LPS (n=8, LPS 25 mg/kg i.p., 500 mg/kg oral, 34 hr): 3
# of Death after LPS (n=8, LPS 25 mg/kg i.p., 500 mg/kg oral, 48 hr): 4
# of Death after LPS (n=8, LPS 25 mg/kg i.p., 500 mg/kg oral, 58 hr): 4
# of Death after LPS (n=8, LPS 25 mg/kg i.p., 500 mg/kg oral, 72 hr): 4
# of Death after LPS (n=8, LPS 25 mg/kg i.p., 500 mg/kg oral, 82 hr): 4
Survival rate (%) (n=8, LPS 25 mg/kg i.p., 500 mg/kg oral, final (82 hours, same at 96 and 120 hours)): 50%
Survival rate (%) (n=13, LPS 25 mg/kg i.p., UP360/Sodium Butyrate 500, Aloe 150, Poria 300, RA 50 mg/kg, 0 hr): 100%
Survived (n=13 study, doses as E49, at 144 hpi): 4
Number of deceased animals post LPS (n=13 study, doses as E49, 36 hpi): 4
Number of deceased animals post LPS (n=13 study, doses as E49, 48 hpi): 1
Number of deceased animals post LPS (n=13 study, doses as E49, 60 hpi): 1
Number of deceased animals post LPS (n=13 study, doses as E49, 72 hpi): 0
Number of deceased animals post LPS (n=13 study, doses as E49, 96 hpi): 1
Number of deceased animals post LPS (n=13 study, doses as E49, 120 hpi): 0
Number of deceased animals post LPS (n=13 study, doses as E49, 144 hpi): 0
Deceased (n=13 study, doses as E49, total over 144 hpi): 9
Mortality rate (%) (n=13 study, doses as E61, 0 hr): 0.0%
Mortality rate (%) [1]: 15.4%
Survival rate (%) [1]: 84.6%
Mortality rate (%) [2]: 46.2%
Survival rate (%) [2]: 53.8%
Mortality rate (%) [3]: 53.8%
Survival rate (%) [3]: 46.2%
Mortality rate (%) [4]: 61.5%
Survival rate (%) [4]: 38.5%
Mortality rate (%) [5]: 61.5%
Survival rate (%) [5]: 38.5%
Mortality rate (%) [6]: 69.2%
Survival rate (%) [6]: 30.8%
Mortality rate (%) [7]: 69.2%
Survival rate (%) [7]: 30.8%
Mortality rate (%) [8]: 69.2%
Survival rate (%) [8]: 30.8%
SR (%) (survival rate, n=13 study, doses as E49, end of study): 30.8%
